Test results from US20190110971A1, “COMPOSITIONS FOR MANAGING PLAQUE FORMATION” (THE REGENTS OF THE UNIVERSITY OF CALIFORNIA, priority 2016, published 2019).

What follows are compounds tested on bracket-induced plaque formation (saliva-derived plaques on HA discs with brackets) (assay: in vitro bracket-induced biofilm model system, crystal violet assay). Conditions: in vitro grown plaques from pooled human saliva, FIG. 5B/5C.
Format: cell-based
From the text: These discs were then fitted into 12-well tissue culture plates for the growth of saliva-derived plaques. One unique feature of this system is use of a new culture medium developed by this laboratory (Shi-medium, Tian Y 2010) which allows the biofilm grown in vitro to be very similar to in vivo human plaque.
A mixed pool of human saliva samples was collected from 10 volunteers to develop in vitro grown plaques on the model system developed above. Amino acids and sugar monomers and analogs were selected mostly from the list of FDA Generally Recognized As Safe (GRAS) compounds (http://www.fda.gov/Food/Ingredients PackagingLabeling/GRAS/SCOGS/ default.htm). The anti-biofilm inhibitory function of these chemicals was assayed with a crystal violet assay (Sharma A 2005), as illustrated in FIG. 5A. The compounds with more than 10× inhibitory effects were further investigated.
With `C[C@H](O)[C@@H](N)C(=O)O` [D-Thr, D-threonine] the “inhibitory effects against bracket-induced plaque formation” value (“inhibitory effects” for short) was “strong inhibitory effects”.
In the case of `C[C@@H](N)C(=O)O` [D-Ala, D-alanine], the “inhibitory effects” value is reported as “strong inhibitory effects”.
For `CC(=O)N[C@H]1C(O)O[C@H](CO)[C@@H](O)[C@@H]1O` (stereo partly drawn) [N-acyl-Glucosamine, N-acetylglucosamine], the “inhibitory effects” value was “strong inhibitory effects”.
With `N=C(N)NCCC[C@H](N)C(=O)O` [L-Arg, L-arginine] the “inhibitory effects” value was “strong inhibitory effects”.
For `NCCCC[C@H](N)C(=O)O` [L-Lys, L-lysine], the “inhibitory effects” value was “strong inhibitory effects”.
`NCCCC[C@@H](N)C(=O)O` [D-Lys, D-lysine] was tested, and the “inhibitory effects” value was “strong inhibitory effects”.
